By IC50 is commonly meant the concentration at which inhibition is half-maximal. Low readings indicate greater potency, high ones weaker potency.

Molecules are shown by their SMILES.

For the assay, the target named is acyl-CoA:cholesterol acyltransferase (ACAT). The assay is described as follows: in vitro ACAT inhibition test: radio-labeled cholesteryl oleate formed from radio-labeled oleic acid in intestinal microsomes. The assay is classed as biochemical. Conditions: concentration required to inhibit cholesteryl oleate formation to 50% of control; tissue preparation containing rabbit intestinal microsomes. The protocol:
The ability of representative compounds of the present invention to inhibit ACAT was measured using an in vitro test more fully described in Field, F. J. and Salone, R. G., Biochemica et Biophysica 712: 557-570 (1982). The test assesses the ability of a test compound to inhibit the acylation of cholesterol by oleic acid by measuring the amount of radio-labeled cholesterol oleate formed from radio-labeled oleic acid in a tissue preparation containing rabbit intestinal microsomes.
The data appear in the Table where they are expressed as IC₅₀ values; i.e. the concentration of test compound required to inhibit cholesteryl oleate formation to 50% of control.
Compound `CCCCc1ccc(OCCCC(C)(C)C(=O)Nc2ccccc2OC)cc1` [Example 2, 5-(4-butylphenoxy)-N-(2-methoxyphenyl)-2,2-dimethylpentanamide] displayed a half-maximal inhibitory concentration (IC50) of 4300 nM.

The compound `Cc1ccc(OCCCC(C)(C)C(=O)NC(C)c2ccccn2)cc1` (centres unmarked) [Example 1, 2,2-dimethyl-5-(4-methylphenoxy)-N-[1-(2-pyridinyl)ethyl]pentanamide] displayed a half-inhibitory concentration (IC50) of 4800 nM.

In turn, `Cc1ccc(NC(=O)C(C)(C)CCCOc2ccc(C(C)(C)C)cc2)c(C)c1` [Example 8, 5-[4-(1,1-dimethylethyl)phenoxy]-N-(2,4-dimethylphenyl)-2,2-dimethylpentanamide] came in with a concentration for half-maximal inhibition (IC50) of 1400 nM. Compared with the last compound, the IC50 is about 3.4-fold lower.

The compound `CCCCc1ccc(OCCCC(C)(C)C(=O)NC(C)c2ccccn2)cc1` (centres unmarked) [Example 5, 5-(4-butylphenoxy)-2,2-dimethyl-N-[1-(2-pyridinyl)ethyl]pentanamide] registered an IC50 of 800 nM. Compared with the last compound, the IC50 is about 1.8-fold lower.

With `COc1cc(OC)c(NC(=O)C(C)(C)CCCOc2ccc(C(C)(C)C)cc2)c(OC)c1` [Example 10, 5-[4-(1,1-dimethylethyl)phenoxy]-2,2-dimethyl-N-(2,4,6-trimethoxyphenyl)pentanamide], the IC50 was 44 nM.

The compound `CCC(C)(C)c1ccc(OCCCC(C)(C)C(=O)NC(C)c2ccccn2)cc1` (centres unmarked) [Example 13, 5-[4-(1,1-dimethylpropyl)phenoxy]-2,2-dimethyl-N-[1-(2-pyridinyl)ethyl]pentanamide] registered a half-maximal inhibitory concentration (IC50) of 160 nM.

Compound `CCCCCCCCc1ccc(OCCCC(C)(C)C(=O)Nc2c(OC)cc(OC)cc2OC)cc1` [Example 16, 2,2-dimethyl-5-(4-octylphenoxy)-N-(2,4,6-trimethoxyphenyl)pentanamide] yielded a concentration for half-maximal inhibition (IC50) of 800 nM.

In the case of `CCCCc1ccc(OCCCC(C)(C)C(=O)Nc2c(OC)ncnc2OC)cc1` [Example 7, 5-(4-butylphenoxy)-N-(4,6-dimethoxy-5-pyrimidinyl)-2,2-dimethylpentanamide], the half-maximal inhibitory concentration (IC50) was 9000 nM.

Take `CCCCCCc1ccc(OCCCC(C)(C)C(=O)NC(C)c2ccccn2)cc1` (centres unmarked) [Example 15, 5-(4-hexylphenoxy)-2,2-dimethyl-N-[1-(2-pyridinyl)ethyl]pentanamide]: half-maximal inhibition (IC50) was put at 700 nM.

`CCCCc1ccc(OCCCC(C)(C)C(=O)Nc2ccc(C)cc2OC)cc1` [Example 3, 5-(4-butylphenoxy)-N-(2-methoxy-4-methylphenyl)-2,2-dimethylpentanamide] came in with a half-inhibitory concentration (IC50) of 2400 nM.

`CC(C)(CCCOc1ccc(C(C)(C)C)cc1)C(=O)Nc1ccc(F)cc1F` [Example 9, N-(2,4-difluorophenyl)-5-[4-(1,1-dimethylethyl)phenoxy]-2,2-dimethylpentanamide] came in with an IC50 of 1200 nM.

`CCCCc1ccc(OCCCC(C)(C)C(=O)Nc2c(OC)cc(OC)cc2OC)cc1` [Example 4, 5-(4-butylphenoxy)-2,2-dimethyl-N-(2,4,6-trimethoxyphenyl)-pentanamide] registered an IC50 of 460 nM. This IC50 is about 2.6-fold lower than that of the compound before.

For `CC(NC(=O)C(C)(C)CCCOc1ccc(C(C)(C)C)cc1)c1ccccn1` (centres unmarked) [Example 12, 5-[4-(1,1-dimethylethyl)phenoxy]-2,2-dimethyl-N-[1-(2-pyridinyl)ethyl]pentanamide], the IC50 stood at 700 nM.

Compound `CCCCCCCCc1ccc(OCCCC(C)(C)C(=O)NC(C)c2ccccn2)cc1` (centres unmarked) [Example 17, 2,2-dimethyl-5-(4-octylphenoxy)-N-[1-(2-pyridinyl)ethyl]pentanamide] registered a half-maximal inhibitory concentration (IC50) of 450 nM.

Source of the values: patent EP0252524A2, “Aryl- and aralkylamide- derivatives of Omega- (substituted-phenyloxy)-alkanoic acids as inhibitors of acyl-coa: cholesterol acyltransferase and pharmaceuticals containing them” (WARNER-LAMBERT COMPANY, priority 1986, dated 1988).
